PubChem BioAssay (NCI)
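How tested: cells in 96-well plates exposed to compound for 48 hours at five concentrations. TGI: total growth inhibition.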

What was measured:
Experiment in all cases: NCI anticancer screen, dose series, 48 h
BT-549 breast = system: BT-549 breast
OVCAR-4 ovarian = system: OVCAR-4 ovarian
MCF7 breast = system: MCF7 breast
OVCAR-5 ovarian = system: OVCAR-5 ovarian
A498 renal = system: A498 renal
SK-MEL-5 melanoma = system: SK-MEL-5 melanoma
EKVX NSCLC = system: EKVX NSCLC
SK-MEL-2 melanoma = system: SK-MEL-2 melanoma
NCI-H522 lung = system: NCI-H522 lung
HCT-116 colon = system: HCT-116 colon
HOP-62 NSCLC = system: HOP-62 NSCLC
MALME-3M melanoma = system: MALME-3M melanoma
HS 578T breast = system: HS 578T breast
A549 NSCLC = system: A549 NSCLC
RPMI-8226 leukemia = system: RPMI-8226 leukemia
786-0 renal = system: 786-0 renal
CCRF-CEM leukemia = system: CCRF-CEM leukemia
PC-3 prostate = system: PC-3 prostate
SK-OV-3 ovarian = system: SK-OV-3 ovarian
TK-10 renal = system: TK-10 renal
OVCAR-3 ovarian = system: OVCAR-3 ovarian
UO-31 renal = system: UO-31 renal
HT29 colon = system: HT29 colon
T-47D breast = system: T-47D breast
HOP-92 NSCLC = system: HOP-92 NSCLC
HCT-15 colon = system: HCT-15 colon
U251 CNS = system: U251 CNS
OVCAR-8 ovarian = system: OVCAR-8 ovarian
CAKI-1 renal = system: CAKI-1 renal
SW-620 colon = system: SW-620 colon
SK-MEL-28 melanoma = system: SK-MEL-28 melanoma
HCC-2998 colon = system: HCC-2998 colon
COLO 205 colon = system: COLO 205 colon
UACC-257 melanoma = system: UACC-257 melanoma
NCI-H460 lung = system: NCI-H460 lung
MDA-MB-231 breast = system: MDA-MB-231 breast
UACC-62 melanoma = system: UACC-62 melanoma
IGROV1 ovarian = system: IGROV1 ovarian
SF-539 CNS = system: SF-539 CNS
RXF 393 renal = system: RXF 393 renal
MDA-N = system: MDA-N
NCI-H226 lung = system: NCI-H226 lung
MOLT-4 leukemia = system: MOLT-4 leukemia
SNB-75 CNS = system: SNB-75 CNS
MDA-MB-435 = system: MDA-MB-435
NCI-H23 lung = system: NCI-H23 lung
ACHN renal = system: ACHN renal
SN12C renal = system: SN12C renal
KM12 colon = system: KM12 colon
SF-268 CNS = system: SF-268 CNS
SNB-19 CNS = system: SNB-19 CNS
NCI/ADR-RES ovarian = system: NCI/ADR-RES ovarian
SF-295 CNS = system: SF-295 CNS
M14 melanoma = system: M14 melanoma
LOX IMVI melanoma = system: LOX IMVI melanoma
DU-145 prostate = system: DU-145 prostate
SR leukemia = system: SR leukemia
K-562 leukemia = system: K-562 leukemia

Measured: TGI

O=C1c2ccccc2NC(=S)[C@@H]2CCCN12
> 100 µM: all assays above
